According to patent US20150150878A1, “Methods For Inhibiting Viruses By Targeting Cathepsin-L Cleavage Sites In The Viruses' Glycoproteins” (priority 2012, published 2015):
Where “and” joins values, the source holds several entries; their conditions need not be identical. Identical values can stand only once. Counter-ions that a name gives are not always drawn. Like-named read-outs stand apart in the source and are kept apart here. Residues, ends and D or L forms follow the SMILES beside them. *: point of attachment. Cbz = O=C(OCc1ccccc1)*

Assays:
[1] = tested on: SARS-CoV pseudotyped virus; type: cell-based
cathepsin L [2] = molecular target: T1, cathepsin L (Homo sapiens, UniProt P07711); type: biochemical
[3] = tested on: EBOV-GP pseudotyped virus; assay: microbe, parasite or virus in culture; type: cell-based, Ebola virus; conditions: for IC50: read-out: IC50 against EBOV pseudotyped virus; for inhibition at 10 µM: read-out: inhibition of EBOV pseudotyped virus entry
[4] = tested on: SARS-CoV-S pseudotyped virus; assay: microbe, parasite or virus in culture; type: cell-based; conditions: for IC50: read-out: IC50 against SARS-CoV-S pseudotyped virus; for inhibition at 10 µM: read-out: inhibition of SARS-CoV pseudotyped virus entry
cathepsin L [5] = molecular target: T1, cathepsin L; type: biochemical; set-up: human cathepsin L purified from human liver (Sigma Aldrich); purchased Sigma Aldrich; host or cells: human liver (tissue-purified)
cathepsin L [6] = molecular target: T1, cathepsin L; type: biochemical; set-up: human cathepsin L purified from human liver (Sigma Aldrich); purchased Sigma Aldrich; host or cells: human liver (tissue-purified); remark: listed apart in the source
cathepsin L [7] = molecular target: T1, cathepsin L; type: biochemical; set-up: human cathepsin L purified from human liver (Sigma Aldrich); purchased Sigma Aldrich; host or cells: human liver (tissue-purified); remark: listed apart in the source
cathepsin L [8] = molecular target: T1, cathepsin L; type: biochemical; remark: listed apart in the source
cathepsin L [9] = molecular target: T1, cathepsin L; type: biochemical; set-up: human cathepsin L purified from human liver (Sigma Aldrich); purchased Sigma Aldrich; host or cells: human liver (tissue-purified); remark: listed apart in the source
cathepsin L [10] = molecular target: T1, cathepsin L; type: biochemical; set-up: human cathepsin L purified from human liver (Sigma Aldrich); purchased Sigma Aldrich; host or cells: human liver (tissue-purified); remark: listed apart in the source
[11] = Severe acute respiratory syndrome coronavirus, 72 h

T1 sequence (P07711 114-333): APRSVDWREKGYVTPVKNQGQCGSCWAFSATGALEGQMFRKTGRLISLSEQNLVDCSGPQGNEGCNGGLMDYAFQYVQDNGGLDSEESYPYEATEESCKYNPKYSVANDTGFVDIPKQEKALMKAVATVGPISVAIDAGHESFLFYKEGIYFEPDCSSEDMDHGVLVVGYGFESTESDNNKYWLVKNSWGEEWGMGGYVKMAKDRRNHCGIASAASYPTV

SMILES | inhibition of SARS-CoV pseudotyped virus entry [1] | inhibition of Cat L mediated cleavage of SARS-CoV-S-flag protein (cathepsin L [2]) | cytotoxic effect on 293FT cells (293FT cells) | Inhibition of cleavage of NPY peptide by Cathepsin-L (cathepsin L [5]) | percentage inhibition against human Pro-NPY peptide (cathepsin L [5]) | Inhibition of cleavage of Hendra peptide by Cathepsin-L (cathepsin L [6]) | percentage inhibition against Hendra peptide (cathepsin L [6]) | inhibition at 10 µM ([3]; Zaire ebolavirus, 72 h) | inhibition at 10 µM [4, 11] | Inhibition of cleavage of SARS peptide by Cathepsin-L (cathepsin L [7]) | percentage inhibition against SARS peptide (cathepsin L [7]) | Inhibition of cleavage of Nipah peptide by Cathepsin-L (cathepsin L [9]) | percentage inhibition against Nipah peptide (cathepsin L [9]) | Inhibition of cleavage of Ebola peptide by Cathepsin-L (cathepsin L [10]) | percentage inhibition against Ebola peptide (cathepsin L [10]) | other results
O=C[C@H](Cc1ccc(O)cc1)NC(=O)[C@H](Cc1ccccc1)NC(=O)OCc1ccccc1 [cathepsin L inhibitor, Z-Phe-Tyr-CHO] (Cbz-Phe-Tyr-aldehyde) | 60% and 58% | – | – | – | – | – | – | – | – | – | – | – | – | – | – | –
CCNc1nc(NC(C)(C)C)nc(N(C#N)CC(=O)OC)n1 [Compound 7402683, methyl 2-(N-(4-(tert-butylamino)-6-(ethylamino)-1,3,5-triazin-2-yl)cyanamido)acetate] | – | dose dependent inhibition | no significant cytotoxicity | – | – | – | – | – | – | – | – | – | – | – | – | inhibition of EBOV pseudotyped virus entry ([3]; 10 µM): 53.3%; IC50 [3]: 10 µM; inhibition of SARS-CoV pseudotyped virus entry ([4]; 10 µM): 68.3%; IC50 [4]: 6 µM
COC(=O)CN(C#N)c1nc(NC(C)C)nc(NC(C)C)n1 [Compound 5705213, methyl 2-(N-(4,6-bis(isopropylamino)-1,3,5-triazin-2-yl)cyanamido)acetate] | 50% and 60% | dose dependent inhibition | – | 18% | 20% | 84.3% | 94.2% | 39.8% | 64.7% | 79.8% | 90.1% | 76.3% | 90.7% | 42% | 81.3% | IC50 ([3]; Zaire ebolavirus, 72 h): 15 µM; IC50 [4, 11]: 9 µM; change of Vmax in presence of the inhibitor (cathepsin L [8]): decrease; mechanism of inhibition (cathepsin L [8]): mixed inhibitor; cell viability (293FT cells; human): over 80%
O=C(Nc1cccc(C(F)(F)F)c1)Nc1ccc(Cl)c(Cl)c1 [Compound 5182554, 1-(3,4-dichlorophenyl)-3-(3-(trifluoromethyl)phenyl)urea] | – | – | toxic | 7.4% | 14.8% | 49.4% | 50.9% | 60.5% | 49.3% | 78.1% | 72.6% | 44% | 56.5% | 31% | 77% | cytotoxicity (293FT cells; human): 20-100%
CN(C)C(=O)COC(=O)Cc1ccc(OC(=O)c2ccc(NC(=N)N)cc2)cc1 [protease inhibitor, Camostat mesylate] | 70% | – | – | – | – | – | – | – | – | – | – | – | – | – | – | –
